{
  "source": "PubChem BioAssay AID1259407",
  "about": "(Chemical Carcinogenesis Research Information System (CCRIS), 2018)",
  "system": "CCRIS mutagenicity, Ames/micronucleus/aberration tests",
  "assay": "CCRIS mutagenicity studies",
  "key": {"[1]": {"conditions": "Test System: AMES SALMONELLA TYPHIMURIUM, Strain/Indicator: TA1537, Metabolic Activation: NONE, Method: PREINCUBATION"}, "[2]": {"conditions": "Test System: AMES SALMONELLA TYPHIMURIUM, Strain/Indicator: TA98, Metabolic Activation: NONE, Method: STANDARD PLATE"}, "[3]": {"conditions": "Test System: AMES SALMONELLA TYPHIMURIUM, Strain/Indicator: TA98, Metabolic Activation: RAT, LIVER, S-9, AROCLOR 1254, Method: STANDARD PLATE"}, "[4]": {"conditions": "Test System: AMES SALMONELLA TYPHIMURIUM, Strain/Indicator: TA100, Metabolic Activation: NONE, Method: STANDARD PLATE"}, "[5]": {"conditions": "Test System: AMES SALMONELLA TYPHIMURIUM, Strain/Indicator: TA100, Metabolic Activation: RAT, LIVER, S-9, AROCLOR 1254, Method: STANDARD PLATE"}},
  "note": "Active and inactive are the calls of the source. How the calls were made is not given here.",
  "data": [
    {"compound": "Nc1ccc2c(c1)C(=O)/C(=N/Nc1ccc(-c3ccc(N/N=C4/C(=O)c5c(N)cc(S(=O)(=O)O)cc5C=C4S(=O)(=O)O)cc3)cc1)C(S(=O)(=O)O)=C2", "values": [
      {"measurement": "mutagenic call", "setting": "Test System: AMES SALMONELLA TYPHIMURIUM, Strain/Indicator: TA98, Metabolic Activation: HAMSTER, LIVER, S-9, AROCLOR 1254 (10%), Method: PREINCUBATION", "value": "active; positive"},
      {"measurement": "mutagenic call", "setting": "Test System: AMES SALMONELLA TYPHIMURIUM, Strain/Indicator: TA98, Metabolic Activation: NONE, Method: PREINCUBATION", "value": "active; positive"},
      {"measurement": "mutagenic call", "setting": "Test System: AMES SALMONELLA TYPHIMURIUM, Strain/Indicator: TA98, Metabolic Activation: RAT, LIVER, S-9, AROCLOR 1254 (10%), Method: PREINCUBATION", "value": "inactive; negative"},
      {"measurement": "mutagenic call", "setting": "Test System: AMES SALMONELLA TYPHIMURIUM, Strain/Indicator: TA100, Metabolic Activation: HAMSTER, LIVER, S-9, AROCLOR 1254 (10%), Method: PREINCUBATION", "value": "inactive; negative"},
      {"measurement": "mutagenic call", "setting": "Test System: AMES SALMONELLA TYPHIMURIUM, Strain/Indicator: TA100, Metabolic Activation: NONE, Method: PREINCUBATION", "value": "inactive; negative"},
      {"measurement": "mutagenic call", "setting": "Test System: AMES SALMONELLA TYPHIMURIUM, Strain/Indicator: TA100, Metabolic Activation: RAT, LIVER, S-9, AROCLOR 1254 (10%), Method: PREINCUBATION", "value": "inactive; negative"},
      {"measurement": "mutagenic call", "setting": "Test System: AMES SALMONELLA TYPHIMURIUM, Strain/Indicator: TA1535, Metabolic Activation: HAMSTER, LIVER, S-9, AROCLOR 1254 (10%), Method: PREINCUBATION", "value": "inactive; negative"},
      {"measurement": "mutagenic call", "setting": "Test System: AMES SALMONELLA TYPHIMURIUM, Strain/Indicator: TA1535, Metabolic Activation: NONE, Method: PREINCUBATION", "value": "inactive; negative"},
      {"measurement": "mutagenic call", "setting": "Test System: AMES SALMONELLA TYPHIMURIUM, Strain/Indicator: TA1535, Metabolic Activation: RAT, LIVER, S-9, AROCLOR 1254 (10%), Method: PREINCUBATION", "value": "inactive; negative"},
      {"measurement": "mutagenic call", "setting": "Test System: AMES SALMONELLA TYPHIMURIUM, Strain/Indicator: TA1537, Metabolic Activation: HAMSTER, LIVER, S-9, AROCLOR 1254 (10%), Method: PREINCUBATION", "value": "inactive; negative"},
      {"measurement": "mutagenic call", "setting": "[1]", "value": "active; positive"},
      {"measurement": "mutagenic call", "setting": "Test System: AMES SALMONELLA TYPHIMURIUM, Strain/Indicator: TA1537, Metabolic Activation: RAT, LIVER, S-9, AROCLOR 1254 (10%), Method: PREINCUBATION", "value": "inactive; negative"}
    ]},
    {"compound": "COC(=O)C(C)(C)Oc1ccc(-c2ccc(Cl)cc2)cc1", "values": [
      {"measurement": "mutagenic call", "setting": "[2]", "value": "inactive; negative"},
      {"measurement": "mutagenic call", "setting": "[3]", "value": "inactive; negative"},
      {"measurement": "mutagenic call", "setting": "Test System: AMES SALMONELLA TYPHIMURIUM, Strain/Indicator: TA98, Metabolic Activation: RAT, LIVER, S-9, PHENOBARBITONE AND BETA-NAPHTHOFLAVONE, Method: PREINCUBATION", "value": "inactive; negative"},
      {"measurement": "mutagenic call", "setting": "[4]", "value": "inactive; negative"},
      {"measurement": "mutagenic call", "setting": "[5]", "value": "inactive; negative"},
      {"measurement": "mutagenic call", "setting": "Test System: AMES SALMONELLA TYPHIMURIUM, Strain/Indicator: TA100, Metabolic Activation: RAT, LIVER, S-9, PHENOBARBITONE AND BETA-NAPHTHOFLAVONE, Method: PREINCUBATION", "value": "inactive; negative"},
      {"measurement": "mutagenic call", "setting": "Test System: AMES SALMONELLA TYPHIMURIUM, Strain/Indicator: TA1535, Metabolic Activation: NONE, Method: STANDARD PLATE", "value": "inactive; negative"},
      {"measurement": "mutagenic call", "setting": "Test System: AMES SALMONELLA TYPHIMURIUM, Strain/Indicator: TA1535, Metabolic Activation: RAT, LIVER, S-9, AROCLOR 1254, Method: STANDARD PLATE", "value": "inactive; negative"},
      {"measurement": "mutagenic call", "setting": "Test System: AMES SALMONELLA TYPHIMURIUM, Strain/Indicator: TA1537, Metabolic Activation: NONE, Method: STANDARD PLATE", "value": "inactive; negative"},
      {"measurement": "mutagenic call", "setting": "Test System: AMES SALMONELLA TYPHIMURIUM, Strain/Indicator: TA1537, Metabolic Activation: RAT, LIVER, S-9, AROCLOR 1254, Method: STANDARD PLATE", "value": "inactive; negative"},
      {"measurement": "mutagenic call", "setting": "Test System: AMES SALMONELLA TYPHIMURIUM, Strain/Indicator: TA1538, Metabolic Activation: NONE, Method: STANDARD PLATE", "value": "inactive; negative"},
      {"measurement": "mutagenic call", "setting": "Test System: AMES SALMONELLA TYPHIMURIUM, Strain/Indicator: TA1538, Metabolic Activation: RAT, LIVER, S-9, AROCLOR 1254, Method: STANDARD PLATE", "value": "inactive; negative"},
      {"measurement": "mutagenic call", "setting": "Test System: E. COLI, Strain/Indicator: WP2 (PKM101), Metabolic Activation: NONE, Method: STANDARD PLATE", "value": "inactive; negative"},
      {"measurement": "mutagenic call", "setting": "Test System: E. COLI, Strain/Indicator: WP2 (PKM101), Metabolic Activation: RAT, LIVER, S-9, AROCLOR 1254, Method: STANDARD PLATE", "value": "inactive; negative"},
      {"measurement": "mutagenic call", "setting": "Test System: E. COLI, Strain/Indicator: WP2 (PKM101), Metabolic Activation: RAT, LIVER, S-9, PHENOBARBITONE AND BETA-NAPHTHOFLAVONE, Method: PREINCUBATION", "value": "inactive; negative"},
      {"measurement": "mutagenic call", "setting": "Test System: E. COLI, Strain/Indicator: WP2 UVRA (PKM101), Metabolic Activation: NONE, Method: STANDARD PLATE", "value": "inactive; negative"},
      {"measurement": "mutagenic call", "setting": "Test System: E. COLI, Strain/Indicator: WP2 UVRA (PKM101), Metabolic Activation: RAT, LIVER, S-9, AROCLOR 1254, Method: STANDARD PLATE", "value": "inactive; negative"},
      {"measurement": "mutagenic call", "setting": "Test System: UDS RAT HEPATOCYTES, Metabolic Activation: NONE, Method: AUTORADIOGRAPHY", "value": "inactive; negative"},
      {"measurement": "mutagenic call", "setting": "Test System: UDS RAT HEPATOCYTES, Strain/Indicator: BROMODEOXYURIDINE INCORP, Metabolic Activation: NONE", "value": "active; positive"}
    ]},
    {"compound": "Cc1ccc2nc3ccc(C)cc3c(N)c2c1", "values": [
      {"measurement": "mutagenic call", "setting": "[1]", "value": "active; positive"}
    ]},
    {"compound": "CCCN(C)N=O", "values": [
      {"measurement": "mutagenic call", "setting": "Test System: CHINESE HAMSTER V-79, Strain/Indicator: V-79/8-AZAGUANINE, Metabolic Activation: RAT, LIVER, S-15, PHENOBARBITAL, Method: STANDARD PLATE", "value": "active; positive"},
      {"measurement": "mutagenic call", "setting": "Test System: CHINESE HAMSTER V-79, Strain/Indicator: V-79/OUABAIN, Metabolic Activation: HAMSTER, HEPATOCYTES, Method: CELL-MEDIATED", "value": "active; positive"}
    ]},
    {"compound": "C=C1[C@H](O)[C@@]23CC[C@H]4[C@@](C)(CCC[C@@]4(C)C(=O)O)[C@@H]2CC[C@]1(O)C3", "values": [
      {"measurement": "mutagenic call", "setting": "Test System: AMES SALMONELLA TYPHIMURIUM, Strain/Indicator: TM677, Metabolic Activation: RAT, LIVER, S-9, AROCLOR 1254, Method: PREINCUBATION", "value": "inactive; negative"}
    ]},
    {"compound": "Nc1c2ccccc2nc2ccc(Br)cc12", "values": [
      {"measurement": "mutagenic call", "setting": "[1]", "value": "active; positive"}
    ]},
    {"compound": "CC(Oc1ccc(Cl)cc1Cl)C(=O)O", "note": "(centres undefined)", "values": [
      {"measurement": "mutagenic call", "setting": "Test System: AMES SALMONELLA TYPHIMURIUM, Strain/Indicator: TA97, Metabolic Activation: NONE, Method: STANDARD PLATE", "value": "inactive; negative"},
      {"measurement": "mutagenic call", "setting": "Test System: AMES SALMONELLA TYPHIMURIUM, Strain/Indicator: TA97, Metabolic Activation: RAT, LIVER, S-9, AROCLOR 1254, Method: STANDARD PLATE", "value": "inactive; negative"},
      {"measurement": "mutagenic call", "setting": "[2]", "value": "inactive; negative"},
      {"measurement": "mutagenic call", "setting": "[3]", "value": "inactive; negative"},
      {"measurement": "mutagenic call", "setting": "[4]", "value": "inactive; negative"},
      {"measurement": "mutagenic call", "setting": "[5]", "value": "inactive; negative"},
      {"measurement": "mutagenic call", "setting": "Test System: AMES SALMONELLA TYPHIMURIUM, Strain/Indicator: TA102, Metabolic Activation: NONE, Method: STANDARD PLATE", "value": "inactive; negative"},
      {"measurement": "mutagenic call", "setting": "Test System: AMES SALMONELLA TYPHIMURIUM, Strain/Indicator: TA102, Metabolic Activation: RAT, LIVER, S-9, AROCLOR 1254, Method: STANDARD PLATE", "value": "inactive; negative"}
    ]}
  ]
}
